Measured values from US20100152165A1, “CARBOXYLIC ACID DERIVATIVES” (priority 2006, published 2010).

Legend:
human GPR40 = target: T1, human GPR40 (Homo sapiens, UniProt O14842); test: GPR40 agonist activity measurement (FLIPR, intracellular calcium); type: cell-based; conditions: human GPR40-expressed CHO cell strain; fluorescence intensity change one minute after measurement
T1 construct: expressed in transfected cells
Excerpt: Test Method 1: GPR40 Agonist Activity Measurement
i) Cloning of Human GPR40
In accordance with the following procedure, complete length sequence of GPR40 was obtained by a PCR method using a human genomic DNA (Clontech) as the template.
An oligonucleotide consisting of the nucleotide sequence represented by SEQ ID NO:1 was used as the forward primer, and an oligonucleotide consisting of the nucleotide sequence represented by SEQ ID NO:2 as the reverse primer. In this connection, a nucleotide sequence containing a XbaI recognition sequence is added to the […] of each of the aforementioned forward primer and reverse primer. In the PCR, a cycle consisting of 94° C. (15 seconds)/55° C. (30 seconds)/72° C. (1 minute) was repeated 30 times using a Taq DNA polymerase (Ex Taq DNA polymerase; Takara Bio) in the presence of 5% dimethyl sulfoxide (DMSO). As a result, a DNA fragment of about 0.9 kbp was amplified. This DNA fragment was digested with XbaI and then inserted into the XbaI site of a plasmid pEF-BOS-dhfr (Nucleic Acids Research, 18, 5322, 1990) to obtain a plasmid pEF-BOS-dhfr-GPR40.
Nucleotide sequence of GPR40 gene in the plasmid pEF-BOS-dhfr-GPR40 was determined by the dideoxy terminator method using a DNA sequencer (ABI 377 DNA Sequencer; Applied Biosystems). Nucleotide sequence of the GPR40 gene was as the nucleotide sequence represented by SEQ ID NO:3.
ii) Preparation of GPR40 Stable Expression Cell
A CHO dhfr cell (a dihydrofolate reductase (dhfr) gene-deficient CHO cell) was used as the cell for expressing GPR40 protein. In addition, the plasmid pEF-BOS-dhfr-GPR40 obtained in the aforementioned i) was used as the expression plasmid for expressing the GPR40 protein. The CHO dhfr cell in 10% fetal calf serum (FCS)-containing aMEM medium was inoculated into a 6 well plate and cultured overnight to a stage of 80 to 90% confluent, and then gene transfer of 2 μg per well of the plasmid pEF-BOS-dhfr-GPR40 was carried out using a transfection reagent (Lipofectamine 2000; Invitrogen). After 24 hours of the culturing since the gene transfer, the cells were diluted and inoculated again. […] After 20 days of culturing, the thus formed colonies of cells were individually recovered and cultured to obtain CHO cells stably expressing GPR40. Cells showing high reactivity for integral ligands oleic acid and linoleic acid were selected from them.
iii) GPR40 Agonist Activity Measurement
This test was measured by FLIPR (registered trade mark, Molecular Device) using change in the intracellular calcium concentration as the index. The test method is shown below.
A human GPR40-expressed CHO cell strain was inoculated in 6×10^3 cells per well portions into a 384 well black plate (Becton-Dickinson). A Calcium-3 assay kit (Molecular Device) was used as the […] and dissolved in 10 ml per bottle of HBSS-HEPES buffer (pH 7.4, 1×HBSS, 20 mM HEPES, Invitrogen). A 35.68 mg portion of probenecid (Sigma) was dissolved in 250 μl of 1 M NaOH and then adjusted by adding 250 μl of HBSS-HEPES buffer. The fluorescence pigment solution was prepared by mixing 16 ml of HBSS-HEPES buffer, 640 μl of the fluorescence pigment and 32 μl of probenecid, per plate. The medium in the plate was discarded, and the fluorescence pigment solution was dispensed in 40 μl per well portions and incubated at room temperature for 2 hours. Each compound to be tested was dissolved in DMSO, diluted with HBSS-HEPES buffer and then dispensed in 10 μl portions into the plate to start the reaction and measure change in the intracellular calcium concentration by FLIPR. EC50 values of the compounds to be tested were calculated from the dose-response curve of fluorescence intensity changes one minute after the measurement.

MIN6 cell = test: Insulin secretion promoting action using MIN6 cell; type: cell-based, mouse; conditions: relative activity value at 1 μM of compound, control (DMSO) 100%; KRB-HEPES with 2.8 mM or 22.4 mM glucose, 37° C. 2 hours
Description: Test Method 2: Insulin Secretion Promoting Action using MIN6 Cell
In this test, the insulin secretion promoting action of compounds to be tested was examined using a mouse pancreatic β cell strain, MIN6 cell. The test method is shown below.
The MIN6 cell was inoculated onto a 96 well plate to a density of 5×10^4 cells/well (200 μl). As the medium, DMEM medium (25 mM glucose) containing 10% FBS, 55 μM of 2-mercaptoethanol, 100 U/ml of penicillin and 100 μg/ml of streptomycin was used. Two days thereafter, the medium was removed using an aspirator, and the plate was once washed with 200 μl of KRB-HEPES (116 mM NaCl, 4.7 mM KCl, 1.2 mM KH2PO4, 1.2 mM MgSO4, 0.25 mM CaCl2, 25 mM NaHCO3, 0.005% FFA Free BSA, 24 mM HEPES (pH 7.4)) containing 2.8 mM glucose, which had been warmed up to 37° C., and again filled with 200 μl of the same buffer and incubated at 37° C. for 1 hour. After removing the aforementioned buffer using an aspirator, this was again washed with the buffer (200 μl), and then a predetermined concentration of each compound to be tested was added to KRB-HEPES containing 2.8 mM or 22.4 mM of glucose, added in 100 μl portions to respective wells and incubated at 37° C. for 2 hours. The aforementioned samples were collected and diluted 100 times, and the insulin concentration was determined using an insulin RIA kit (Amersham). […]

normal mice = test: Normal mice single administration oral glucose tolerance test; type: in vivo; conditions: male ICR mice; 10 mg/kg oral 30 minutes before glucose (2 g/kg) loading; at 30 minutes of glucose loading, based on control group
Description: Test Method 3: Normal Mice Single Administration Oral Glucose Tolerance Test
This test examined on the blood glucose suppressive action of compounds to be tested after glucose loading using normal mice. Male ICR mice (6 weeks of age) were reared for 1 week in advance, subjected to overnight fasting and then used as animals to be tested. Each compound to be tested was prepared into a 0.5% methyl cellulose suspension and orally administered at a dose of 10 mg/kg 30 minutes before the glucose (2 g/kg) loading. In the control group, 0.5% methyl cellulose was administered. Blood glucose decreasing ratio (%) at the time of 30 minutes of glucose loading was calculated based on the control group.

T1 sequence (O14842 whole entry R211H): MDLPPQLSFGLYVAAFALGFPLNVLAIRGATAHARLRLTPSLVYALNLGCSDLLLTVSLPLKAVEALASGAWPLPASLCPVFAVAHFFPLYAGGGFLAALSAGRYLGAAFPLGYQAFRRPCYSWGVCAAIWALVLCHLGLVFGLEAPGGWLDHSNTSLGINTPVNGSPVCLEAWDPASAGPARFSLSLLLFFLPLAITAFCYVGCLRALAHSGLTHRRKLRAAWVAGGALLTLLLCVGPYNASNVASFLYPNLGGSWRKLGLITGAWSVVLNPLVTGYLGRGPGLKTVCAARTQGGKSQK

EC50 (human GPR40)	Structure (SMILES)	Insulin secretion promoting action (MIN6 cell)	Blood glucose decreasing ratio (normal mice)
730 nM	O=C(O)CCc1ccc(NCc2cccc3c2CCCN3CCOc2ccccc2)nc1 [Example 437]		
420 nM	O=C(O)CCc1ccc(NCc2cccc3c2CCCN3CCOc2ccccc2)cc1F [Example 104]	162%	20%
620 nM	O=C(O)CCc1ccc(NCc2cccc3c2CCCN3CCc2ccccc2)cc1F [Example 89]		21%
91 nM	COc1ccccc1OCCN1CCCc2c(CNc3ccc(CCC(=O)O)c(F)c3)cccc21 [Example 176]		
82 nM	CCCN1CCCc2c(CNc3ccc(CCC(=O)O)c(F)c3)cccc21 [Example 87]		
130 nM	Cc1ccc(CNc2ccc(CCC(=O)O)c(F)c2)c2c1N(CCOc1ccccc1)CCC2 [Example 424]		
19 nM	O=C(O)CCc1ccc(NCc2ccc3c(c2)N(c2ccccc2)CCC3)cc1F [Example 86]		
36 nM	COc1ccccc1CCN1CCCc2ccc(CNc3ccc(CCC(=O)O)c(F)c3)c(C)c21 [Example 188]		24%
75 nM	CC(=O)N1CCCc2ccc(COc3ccc(CCC(=O)O)c(F)c3)cc21 [Example 74]		
360 nM	O=C(O)[C@@H]1C[C@H]1c1ccc(NCc2cccc3c2CCCN3CCOc2ccccc2)cc1 [Example 455]		
930 nM	Cc1c(CNc2ccc(CCC(=O)O)c(F)c2)ccc2c1N(c1ccc(C(F)(F)F)cc1)CCC2 [Example 211]		
320 nM	Cc1cccc(N2CCCc3ccc(CNc4ccc(CCC(=O)O)c(F)c4)c(C)c32)c1 [Example 215]		
73 nM	O=C(O)CCc1ccc(OCc2ccc3c(c2)N(CCC(F)(F)F)CCC3)cc1F [Example 73]		

Structure (SMILES)	EC50 (human GPR40)	Insulin secretion promoting action (MIN6 cell)	Blood glucose decreasing ratio (normal mice)
CCCN1CCCc2cccc(CNc3ccc(CCC(=O)[O-])c(F)c3)c21.[Na+] [Example 57]	97 nM	167%	
Cc1c(CNc2ccc(CCC(=O)[O-])c(F)c2)ccc2c1N(c1ccccn1)CCC2.[Na+] [Example 453]	25 nM		24%
